What was measured:
Test in all cases: Enzyme Assay and Determination of the Inhibition Constants
Conditions in all cases: pH 7.4; 22 °C
Coagulation factor X = Coagulation factor X (Homo sapiens, UniProt P00742)
Description: (§1) Each enzyme was assayed with a set of different concentrations of each inhibitor. […] Ki(apparent) values were calculated from enzyme velocity curves using the software package BatchKi (BioKin Ltd, Madison, WI). These apparent inhibition constants were then converted to Ki values by assuming competitive inhibition and using the formula Ki = Ki(apparent)/(1 + S/Km).

[1] = target: Urokinase-type plasminogen activator (Homo sapiens, UniProt P00749)
Description: as §1

[2] = target: Tissue-type plasminogen activator (Homo sapiens, UniProt P00750)
Description: as §1

Tryptase beta-2 = Tryptase beta-2 (Homo sapiens, UniProt P20231)
Description: as §1

Prothrombin = Prothrombin (Homo sapiens, UniProt P00734)
Description: as §1

Chain of Tryptase beta-2 (P20231 as listed by the source): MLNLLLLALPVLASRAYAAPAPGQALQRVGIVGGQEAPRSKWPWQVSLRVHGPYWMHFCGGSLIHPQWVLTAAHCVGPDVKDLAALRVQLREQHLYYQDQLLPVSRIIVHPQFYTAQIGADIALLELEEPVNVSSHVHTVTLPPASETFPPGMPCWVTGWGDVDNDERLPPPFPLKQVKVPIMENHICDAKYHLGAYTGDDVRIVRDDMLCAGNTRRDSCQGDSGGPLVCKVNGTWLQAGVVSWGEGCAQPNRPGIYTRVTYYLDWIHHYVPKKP
Chain of Tissue-type plasminogen activator (P00750 whole entry): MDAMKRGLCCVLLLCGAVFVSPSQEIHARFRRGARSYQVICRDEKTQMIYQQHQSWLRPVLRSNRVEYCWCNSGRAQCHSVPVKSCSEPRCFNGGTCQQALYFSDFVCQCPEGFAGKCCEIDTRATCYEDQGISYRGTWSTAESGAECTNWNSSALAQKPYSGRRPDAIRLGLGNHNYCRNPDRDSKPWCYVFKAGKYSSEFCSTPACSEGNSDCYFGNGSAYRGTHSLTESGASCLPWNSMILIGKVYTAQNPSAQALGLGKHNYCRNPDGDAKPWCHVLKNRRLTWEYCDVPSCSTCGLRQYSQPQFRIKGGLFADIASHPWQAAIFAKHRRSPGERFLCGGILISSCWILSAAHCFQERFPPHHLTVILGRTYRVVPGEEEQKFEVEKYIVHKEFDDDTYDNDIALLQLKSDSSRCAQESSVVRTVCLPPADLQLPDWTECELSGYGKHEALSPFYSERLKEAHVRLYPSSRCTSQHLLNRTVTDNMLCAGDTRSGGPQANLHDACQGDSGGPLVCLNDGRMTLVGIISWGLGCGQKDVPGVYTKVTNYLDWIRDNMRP
Chain of Coagulation factor X (P00742 41-179 limits assumed): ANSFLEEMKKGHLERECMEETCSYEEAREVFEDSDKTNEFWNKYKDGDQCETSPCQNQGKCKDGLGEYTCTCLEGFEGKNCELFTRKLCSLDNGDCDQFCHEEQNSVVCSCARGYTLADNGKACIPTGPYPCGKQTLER
Chain of Coagulation factor X (P00742 235-488 limits assumed): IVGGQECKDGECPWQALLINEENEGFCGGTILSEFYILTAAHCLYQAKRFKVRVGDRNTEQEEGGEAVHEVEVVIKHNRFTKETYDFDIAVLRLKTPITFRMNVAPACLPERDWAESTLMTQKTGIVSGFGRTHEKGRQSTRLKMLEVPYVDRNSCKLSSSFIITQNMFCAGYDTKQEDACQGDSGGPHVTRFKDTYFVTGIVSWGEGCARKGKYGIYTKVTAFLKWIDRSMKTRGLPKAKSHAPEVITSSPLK

Ki (Coagulation factor X)	Ki [1]	Ki [2]	Ki (Tryptase beta-2)	Ki (Prothrombin)	SMILES
110 µM					N=C(N)c1ccccc1 [Benzamidine]
21 µM	2300 nM	15 µM	9.9 µM	58 µM	N=C(N)c1cc2ccccc2s1 [Benzo[b]thiophene-2-carboxamidine]
30 µM		16.8 µM	1.5 µM		N=C(N)c1cc2c(I)cccc2s1 [CA-01]
360 µM		1800 µM	34 µM	1600 µM	N=C(N)c1cc2cccnc2s1 [[amino(thieno[2,3-b]pyridin-2-yl)methylidene]azanium]

From BindingDB's records for doi:10.1016/S1074-5521(00)00104-6 (Axys Pharmaceutical, 2000)
